Experimental data taken from ChEMBL document CHEMBL1201862, “PubChem BioAssay data set” (2004).
Several values for one entry are separate records, joined by “and”; a condition that tells them apart may be missing. Equal entries are not always repeated.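 Five compound concentrations were applied to cells in 96-well plates for 48 hours; endpoints were derived by simple linear interpolation of the resulting dose-response curve. GI50: concentration for 50% inhibition of growth.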 Activity calls are given as the source filed them. Cut-off read from the data, not from the text of the source: active = GI50 up to about 1.1 µM and inactive = higher.

Key:
Assay in all cases: NCI tumour cell line growth inhibition, 48 h
A549 = system: A549
M14 = system: M14
OVCAR-4 = system: OVCAR-4
OVCAR-5 = system: OVCAR-5
HOP-62 = system: HOP-62
UACC-257 = system: UACC-257
SR = system: SR
SN12C = system: SN12C
NCI-H23 = system: NCI-H23
CAKI-1 = system: CAKI-1
SNB-19 = system: SNB-19
EKVX = system: EKVX
SK-OV-3 = system: SK-OV-3
HT-29 = system: HT-29
SK-MEL-2 = system: SK-MEL-2
TK-10 = system: TK-10
LOX IMVI = system: LOX IMVI
OVCAR-8 = system: OVCAR-8
DU-145 = system: DU-145

Measured: GI50

COc1cc(C(C)c2cc3c(cc2OCCCCOc2cc4c(cc2C(C)c2cc(OC)c(OC)c(OC)c2)OCO4)OCO3)cc(OC)c1OC (stereo not given)
inactive: A549 48.4 µM | M14 24.5 µM | OVCAR-4 92.3 µM | OVCAR-5 > 100 µM | HOP-62 37.4 µM | UACC-257 84.7 µM | SR 10.2 µM | SN12C 29.6 µM | NCI-H23 40.4 µM | CAKI-1 > 100 µM | SNB-19 > 100 µM | EKVX 40.5 µM | SK-OV-3 34.4 µM | HT-29 68.9 µM | SK-MEL-2 42.3 µM | TK-10 > 100 µM | LOX IMVI > 100 µM | OVCAR-8 34.8 µM

Cc1cn(C2CC(N(O)Cc3ccccc3)C(CO[Si](C)(C)C(C)(C)C)O2)c(=O)[nH]c1=O (stereo not given)
inactive: M14 16.6 µM and 19.5 µM | OVCAR-4 23.7 µM and 17.4 µM | OVCAR-5 18.6 µM and 19.7 µM | DU-145 17.8 µM and 25.4 µM | HOP-62 19.5 µM and 16.3 µM | UACC-257 16.4 µM and 26.4 µM | SR 31.6 µM | SN12C 16 µM and 16.1 µM | NCI-H23 26.6 µM and 16.7 µM | CAKI-1 17 µM and 26.5 µM | SNB-19 18.6 µM and 34.9 µM | EKVX 25.4 µM and 17.8 µM | HT-29 17.3 µM and 22.9 µM | SK-MEL-2 20.3 µM | OVCAR-8 17.8 µM and 25.7 µM

N#Cc1cccc(/C=N/C23CC4CC(CC(C4)C2)C3)c1
inactive: A549 > 100 µM | M14 > 100 µM | OVCAR-4 > 100 µM | OVCAR-5 > 100 µM | HOP-62 > 100 µM | UACC-257 > 100 µM | SR 76.2 µM | SN12C > 100 µM | NCI-H23 > 100 µM | CAKI-1 > 100 µM | SNB-19 > 100 µM | EKVX > 100 µM | SK-OV-3 > 100 µM | HT-29 > 100 µM | SK-MEL-2 > 100 µM | TK-10 > 100 µM | LOX IMVI > 100 µM | OVCAR-8 > 100 µM

CC(C)(C)C1CCC2c3c([nH]c4ccccc34)C3C(=O)N(c4ccc(C#N)cc4)C(=O)C3C2C1 (stereo not given)
inactive: A549 8.43 µM | M14 16.1 µM | OVCAR-5 20.7 µM | DU-145 13.6 µM | HOP-62 15.7 µM | UACC-257 20.2 µM | SR 6.47 µM | SN12C 9.59 µM | NCI-H23 6.61 µM | CAKI-1 12.3 µM | SNB-19 34.4 µM | EKVX 13.8 µM | SK-OV-3 24.4 µM | HT-29 3.78 µM | SK-MEL-2 13.1 µM | TK-10 20.3 µM | LOX IMVI 13.2 µM | OVCAR-8 14.5 µM

C/C(=N\N(C)C)C(CN1CCCCC1)C(c1ccccc1)c1c(O)c2ccccc2oc1=O (stereo not given)
inactive: A549 > 100 µM | M14 > 100 µM | OVCAR-4 > 100 µM | OVCAR-5 > 100 µM | HOP-62 > 100 µM | UACC-257 > 100 µM | SR > 100 µM | SN12C > 100 µM | NCI-H23 > 100 µM | CAKI-1 > 100 µM | SNB-19 > 100 µM | EKVX > 100 µM | SK-OV-3 97.5 µM | HT-29 > 100 µM | SK-MEL-2 > 100 µM | TK-10 > 100 µM | LOX IMVI > 100 µM | OVCAR-8 > 100 µM

COC(=O)[C@]12CC3C=CC1N(C3)C(CBr)c1c2n(S(=O)(=O)c2ccccc2)c2ccccc12 (stereo not given in full)
inactive: A549 50.5 µM | M14 > 100 µM | OVCAR-4 38.5 µM | OVCAR-5 > 100 µM | DU-145 > 100 µM | HOP-62 92.3 µM | UACC-257 > 100 µM | SN12C > 100 µM | NCI-H23 51.5 µM | CAKI-1 74.6 µM | EKVX 80 µM | SK-OV-3 > 100 µM | HT-29 45.3 µM | SK-MEL-2 79.4 µM | TK-10 > 100 µM | LOX IMVI 43.4 µM | OVCAR-8 49 µM

Cc1ccc(-n2cc(-c3ccc(Cl)cc3)c3c(=N)n(N)cnc32)cc1
inactive: A549 15.1 µM | M14 5.75 µM | OVCAR-4 10.5 µM | OVCAR-5 14.7 µM | DU-145 17.5 µM | HOP-62 14.2 µM | UACC-257 9.93 µM | SN12C 16 µM | NCI-H23 16.1 µM | CAKI-1 18.5 µM | SNB-19 11.8 µM | EKVX 16.4 µM | SK-OV-3 17.4 µM | HT-29 8.24 µM | SK-MEL-2 13.6 µM | TK-10 15.3 µM | LOX IMVI 14.7 µM | OVCAR-8 14.8 µM

CCOC(=O)C(NC(=O)c1nc[nH]c1/N=N/N(C)C)C(C)C (stereo not given)
inactive: A549 > 100 µM | M14 > 100 µM | OVCAR-4 > 100 µM | OVCAR-5 > 100 µM | HOP-62 > 100 µM | UACC-257 > 100 µM | SR > 100 µM | SN12C > 100 µM | NCI-H23 > 100 µM | CAKI-1 > 100 µM | SNB-19 > 100 µM | EKVX > 100 µM | SK-OV-3 > 100 µM | HT-29 > 100 µM | SK-MEL-2 > 100 µM | TK-10 > 100 µM | LOX IMVI > 100 µM | OVCAR-8 > 100 µM
